Test results reported in patent US5334595A, “Pyrazoloquinolones as anticancer agents” (priority 1992, dated 1994).

Legend:
Design in all cases: species or system mice
[1] = In vivo antitumor assay, LC12(sc); details: mouse, in vivo, drug iv, qd 3,5, exp 1161, MTD not achieved, maximum dose tested
Excerpt: (§1) Mice: Inbred: C3H/He and NCR-nu; and Hybrids: B6D2F1 (C57BL/6 females×DBA/2 males, CD2F1 (Balb/c females×DBS/2 males) and B6C3fl (C57BL/6×C3H) were bred at Wayne State University from strains obtained from the Frederick Cancer Research Facility, Frederick, Maryland or purchased from commercial suppliers.
(§2) Tumors: Murine Tumor: P388 and an adriamycin-resistant (ADR) subline P388/ADR leukemia and the following transplantable solid tumors of mice were used for in vivo testing: B16 melanoma (B16), pancreatic ductal adenocarcinoma No. 03 (Pane 03), colon adenocarcinoma No. 38 (colo 38), lung carcinoma No. 12 (LC 12), mammary ductal adenocarcinoma No. 16/C (Mam16C) and an adriamycin-resistant subline Mam16C/ADR. Human tumor: A single human tumor, mammary carcinoma MX-1 was used for in vivo testing. All tumors are in the Developmental Therapeutics Program frozen tumor respository, maintained by the Biological Testing Branch, Frederick Maryland. Each has a detailed description, code identification number, and list of references at the National Tumor Repository. Murine tumors were maintained in the mouse strain of origin and were transplanted in the appropriate F1 hydrid (or the strain of origin) for therapy trials. […]
(§3) Quantitative end points used to assess antitumor activity included % Increased Life Span (% ILS), Tumor Cell Kill (Log10 kill), and Tumor Growth Inhibition (T/C). […]
Tumors were measured with a caliper once or twice weekly (as needed) until either tumors exceeded 1600 mg or cure was assured. […] When the control group tumors reached approximately 750-1500 mg in size (median of group), the median tumor weight of each group was determined (including zeros). […] The % T/C was calculated from the following formula for solid murine tumor models: [formula] where T and C are median tumor weights of the treatment and control groups, respectively. […] By convention the T/C value for the mammary carcinoma MX-1 models is calculated by the parameter of change in tumor weight .

[2] = In vivo antitumor assay, P388(iv); details: mouse, in vivo, drug iv, qd 1-3, exp 1155A
Excerpt: as §1, §2, §3
(§4) Endpoints were calculated as follows: [formula] where Dt is the median day of death for treated and Dc is the median day of death for control groups. […] Minimum quantitative activity limits for additional P388 models (e.g. P388/ADR and P388, IV) have not been defined. […]
(§5) The log10 cell kill was calculated from the following formula: [formula] where T-C is the tumor difference in the median day of death between the treated (T) and the control (C) groups and Td is the tumor doubling time (in days), the latter estimated from the best fit straight line from a log-linear growth plot of the control-group tumors in exponential growth. […]

[3] = test system: P388 leukemia; experiment: In vivo antitumor assay, P388(iv); details: drug iv, qd 1-3, exp 1155A
Excerpt: as §1, §2, §3, §4, §5

[4] = In vivo antitumor assay, P388/ADR(iv); details: mouse, in vivo, iv, drug iv
Excerpt: as §1
(§6) Tumors: Murine Tumor: P388 and an adriamycin-resistant (ADR) subline P388/ADR leukemia and the following transplantable solid tumors of mice were used for in vivo testing: B16 melanoma (B16), pancreatic ductal adenocarcinoma No. 03 (Pane 03), colon adenocarcinoma No. 38 (colo 38), lung carcinoma No. 12 (LC 12), mammary ductal adenocarcinoma No. 16/C (Mam16C) and an adriamycin-resistant subline Mam16C/ADR. Human tumor: A single human tumor, mammary carcinoma MX-1 was used for in vivo testing. All tumors are in the Developmental Therapeutics Program frozen tumor respository, maintained by the Biological Testing Branch, Frederick Maryland. Each has a detailed description, code identification number, and list of references at the National Tumor Repository. Murine tumors were maintained in the mouse strain of origin and were transplanted in the appropriate F1 hydrid (or the strain of origin) for therapy trials. Human mammary carcinoma MX-1 (MX1) was maintained as a subcutaneous implant in either athymic Swiss (Cr: NIH(S)-nu) or athymic random bred (NCR-nu) mice and transplanted in NCR-nu for therapy trials.
(§7) For P388 and P388/ADR leukemia studies the tumor cells were implanted either interperitoneally (IP) or intravenously (IV) on day zero and treatment was started on day one. For B16 melanoma (B16) studies, the tumor cells were implanted IP on day zero and treatment was started on day one. Titered controls were also included to facilitate the calculation of tumor cell kill. For mammary carcinoma MX-1 studies, tumors were implanted with 1) subcutaneously (sc) (14-mg fragment of sc donor tumor) in the axillary region or 2) under the subrenal capsule (SRC) (10×10×10 ocular micrometer unit fragment of sc donor tumor). Treatment started on the day after subrenal capsule tumor implant or when the subcutaneous tumor implant had reached 100-700 mg.
(§8) Quantitative end points used to assess antitumor activity included % Increased Life Span (% ILS), Tumor Cell Kill (Log10 kill), and Tumor Growth Inhibition (T/C). Long Term Survivors (45 or 60 day) were excluded from calculations of %ILS and Tumor Cell Kill.
(§9) Endpoints were calculated as follows: [formula] where Dt is the median day of death for treated and Dc is the median day of death for control groups. A % ILS ≥20 or ≥25 for P388 and B16 intraperitoneal models, respectively, is indicative of a significant degree of antitumor activity. A % ILS ≥75 or ≥50 for P388 and B16 intraperitoneal models, , respectively, is indicative of a high degree of antitumor activity and is the level used by National Cancer Institute to justify further development if other requirements are met (termed DN-2 level activity). Minimum quantitative activity limits for additional P388 models (e.g. P388/ADR and P388, IV) have not been defined. However, the activity limits specified for the intraperitoneal models may be applied as in the majority of instances the intraperitoneal models are found to be signficantly less challenging.
(§10) The log10 cell kill was calculated from the following formula: [formula] where T-C is the tumor difference in the median day of death between the treated (T) and the control (C) groups and Td is the tumor doubling time (in days), the latter estimated from the best fit straight line from a log-linear growth plot of the control-group tumors in exponential growth. The conversion of the T-C values to log10 cell kill is possible because the Td for tumors regrowing post-treatment approximated the Td values of the tumors in untreated control mice.

[5] = test system: adriamycin-resistant (ADR) subline P388/ADR leukemia; experiment: In vivo antitumor assay, P388/ADR(iv); details: drug iv
Excerpt: as §1, §6, §7, §8, §9, §10

With Cc1cc(-c2c(F)cc3c4nn(CCN(C)C)c(=O)c-4cn(C4CC4)c3c2F)cc(C)n1.O=C(O)/C=C/C(=O)O [Example 1, 5-Cyclopropyl-6,8-difluoro-2,5-dihydro-2-[2-(dimethylamino)-ethyl]-7-(2,6-dimethyl-4-pyridinyl)-3H-pyrazolo[4,3-c]quinolin-3-one (E)-2-butendioate (1:1)] the MTD [1] was > 35 mg/kg, the MTD [2] was 37 mg/kg and the ILS % [3] was 82%. For the same molecule, the “Log Kill” value [3] was 5.4, the MTD ([4]; qd 1-3, exp 1149B) was 52 mg/kg and the MTD ([4]; qd 1-5, exp 1073B) was 48 mg/kg. The ILS % ([5]; qd 1-3, exp 1149B) was 27%, the “Log Kill” value ([5]; qd 1-3, exp 1149B) was 1.3 and the ILS % ([5]; qd 1-5, exp 1073B) was 14.3%. The “Log Kill” value ([5]; qd 1-5, exp 1073B) was 0.93.
